Test results: US20100168085A1, “Dopamine and agonists and antagonists thereof for modulation of suppressive activity of CD4+CD25+ regulatory T cells” (YESA RESEARCH AND DEVELOPMENT CO. LTD. at the Weizmann …, priority 2003, published 2010)

Tests used:
[1] = tested on: migration of T cells towards SDF-1
Protocol: (§3) The migration of T cells across polycarbonate filters (pore size 5 μm, diameter 6.5 mm) towards SDF-1 and MDC (CCL22) was assayed in 24-well Transwell chambers (Costar, Corning, Corning, N.Y.). T lymphocytes (1.67×10^6 cells/mL) were suspended in RPMI/0.1% BSA, and 150 μL of the cell suspension was added to the upper chamber after incubation with or without dopamine (90 min, 37° C.). Chemokines were added to the lower chamber at concentrations of 1 μg/mL SDF-1 (CytoLab, Israel) and 0.25 μg/mL MDC (R&D Systems). The plates were incubated for 90 min at 37° C. in 9.5% CO2. […] The numbers of migrating T cells were measured by flow cytometer acquisition for a fixed time (60 s). To calculate specific migration, the number of cells in each subpopulation in the absence of chemokine was subtracted from the number in the corresponding cell subpopulation that migrated in the presence of chemokines. The number of migrating CD4^+CD25^+ T cells was calculated as a percentage of the total T cell population before migration. For migration of purified population we used a similar protocol.
We also examined the migration of a mixed T cell population towards SDF-1.

[2] = tested on: TGF-β1 transcripts in Treg; details: after dopamine treatment
Source text: (§1) (xx) Polymerase chain reaction (PCR). Total RNA was purified with the RNeasy Mini Kit (Qiagen, Germantown, Md.) and transcribed into cDNA using poly dT primers. For PCR the following primers were used: […]
Because the suppressive effect of Treg on Teff is partly due to transforming growth factor (TGF)-β1 (Nakamura et al., 2001), we measured whether exposure of Treg to dopamine affects the level of TGF-β1 expression.

[3] = tested on: BALB/c mice, optic nerve crush injury; details: 0.4 mg/kg immediately after severe optic nerve crush, two weeks later; vehicle 789±23
Source text: (iv) Retrograde labeling of retinal ganglion cells. Mice were anesthetized and placed in a stereotactic device. The skull was exposed and kept dry and clean. The bregma was identified and marked. The designated point of injection was at a depth of 2 mm from the brain surface, 2.92 mm behind the bregma in the anteroposterior axis and 0.5 mm lateral to the midline. A window was drilled in the scalp above the designated coordinates in the right and left hemispheres. The neurotracer dye FluoroGold (5% solution in saline; Fluorochrome, Denver, Colo.) was applied (1 μL, at a rate of 0.5 μL/min in each hemisphere) using a Hamilton syringe, and the skin over the wound was sutured.
(xxi) Assessment of mouse retinal ganglion cell survival. Mice were given a lethal dose of pentobarbitone (170 mg/kg). Their eyes were enucleated and the retinas were detached and prepared as flattened whole mounts in 4% paraformaldehyde solution. Labeled cells from 4-6 selected fields of identical size (0.7 mm^2) were counted. The selected fields were located at approximately the same distance from the optic disk (0.3 mm) to overcome the variation in RGC density as a function of distance from the optic disk. Fields were counted under the fluorescence microscope (magnification ×800) by observers blinded to the identity of the retinas. The average number of RGCs per field in each retina was calculated.

Treg = Treg apoptosis (propidium iodide sub-G1, annexin V, FACS); type: cell-based, mouse
Protocol: (viii) FACS analysis of annexin V-positive regulatory T cells. PE-stained CD25^+ cells were stained for annexin V-FITC according to the manufacturer's instructions. The cells were scored as described above, and CD25^+ lymphocytes were then gated for analysis of annexin V-positive cells.
(xv) Propidium iodide staining. Cells were fixed in cold ethanol 80% and treated with RNAse. Propidium iodide was then applied, and cell samples were assessed by FACSort.

CCR-4 mRNA in Treg = details: 2 h with dopamine
Source text: as §1

Foxp3 expression in Treg = details: 2 h exposure, analysed after 30 min or 24 h
Source text: as §1

[4] = tested on: CXCR-4 and CCR-8 mRNA in Treg; details: data not shown
[5] = tested on: suppressive activity of Treg in vivo (neuronal survival); details: Treg incubated with dopamine (10^−5 M, 2 h) prior to systemic injection
Source text: To unequivocally show the direct effect of dopamine on Treg activity in vivo, we examined whether direct exposure of Treg to dopamine can reduce their suppressive activity in a model of neuronal survival.

[6] = tested on: LFA-1, I-CAM, and V-CAM in Treg; details: data not shown
Protocol: (§2) To verify that the effect of dopamine on adhesion of Treg is exerted through the ERK1/2 pathway, we incubated Treg with the ERK1/2 signaling pathway inhibitor PD98059 before carrying out the adhesion assay. […] Since interaction of T cells with CSPG is mediated in part by the CD44 receptor (Henke et al., 1996), and in light of the known dependence of CD44 expression on the ERK signaling pathway, it was conceivable that dopamine might affect the expression of CD44 in Treg.

[7] = tested on: CD44 expression in Treg and Teff
Protocol: as §2

[8] = tested on: migration of Treg towards MDC (CCL22)
Protocol: as §3
We therefore examined whether exposure to dopamine would also affect Treg migration. For this experiment we used a normal population of CD4^+ T cells, of which Treg (CD4^+CD25^+) accounts for approximately 11% (FIG. 4e).
To examine the direct effect of dopamine on the migration of Treg, we assayed the effect of dopamine on the migration of purified Treg towards MDC. The migratory Treg were stained for CD4 to ensure that cell debris and aggregates would not be counted among them.

[9] = tested on: adhesion of Treg and Teff to chondroitin sulfate proteoglycans (CSPG); test: T cell adhesion to CSPG; type: cell-based, mouse
Protocol: (xiii) T cell adhesion. Adhesion of activated CD4^+CD25^+ and CD4^+CD25^− T cells to CSPG was analyzed as previously described (23). Briefly, flat-bottomed microtiter (96-well) plates were pre-coated with CSPG (1 μg/well, 40 min, 37° C.). ^51Cr-labeled T cells were left untreated or were pre-incubated (30 min, 37° C.) with dopamine or the specified agonist or antagonist (10^−5M). The cells (10^5 cells in 100 μL of RPMI containing 0.1% BSA) were then added to the CSPG-coated wells, incubated (30 min, 37° C.), and washed. Adherent cells were lysed and the resulting supernatants were removed and counted in a γ-counter. Results were expressed as the mean percentage of the total population before adhesion of bound T cells from quadruplicate wells for each experimental group.
One of the main features of T cells is their ability to migrate to tissues in need of rescue or repair [such as diseased or damaged CNS (Hickey, 1999; Flugel et al., 2001). […] We therefore incubated Treg with dopamine for 2 h and then examined their adhesion to chondroitin sulfate proteoglycans (CSPG), extracellular matrix proteins often associated with injured tissues (Jones et al., 2003).
as §2

NCCc1ccc(O)c(O)c1 [dopamine, 3,4-dihydroxyphenethylamine]
Migration pattern of mixed T cell population towards SDF-1 [1]: did not alter this pattern | Transcripts encoding TGF-β1 in Treg [2]: decreased | Viable neurons in retina (mean±SD) [3]: 1110±56 /mm^2 | Apoptosis, annexin V staining for phosphatidylserine (Treg; Treg incubated with compound): could not detect any signs of apoptosis | Apoptotic cells (sub-G1), propidium iodide staining (Treg; Treg incubated with dopamine): No signs of apoptosis | Expression of CCR-4 in Treg (CCR-4 mRNA in Treg): decreased | Foxp3 expression in Treg (Foxp3 expression in Treg): no significant change | Expression of mRNA for CXCR-4 and CCR-8 in Treg [4]: did not change | Suppressive effect of injected Treg on neuronal survival [5]: abolished their suppressive effect | LFA-1, I-CAM, V-CAM in Treg [6]: did not show any dopamine-related changes | CD44 immunoreactivity in Treg ([7]; activated 24 h, 2 h with dopamine): decreased CD44 immunoreactivity | CD44 expression in Teff ([7]; after incubation with dopamine): not affected | Migration of purified Treg towards MDC [8]: almost completely abolished | Treg (CD4+CD25+) share of CD4+ cells migrating towards MDC ([8]; after exposure of CD4+ population to dopamine, 17% without dopamine): approximately 10% | Migration of Teff ([8]; data not shown): no effect | Adhesion of Teff to CSPG [9]: slight, nonsignificant effect | Adhesion of Treg to CSPG ([9]; dopamine 10^−9-10^−5 M, concentration-dependent, agonist 10^−5 M): significantly decreased
